The record followed here is patent publication US11266616B2, “Compositions and methods for inhibiting kinase activity” (BRANDEIS UNIVERSITY, priority 2016, dated 2022).

Data set [1] has as its target T1, ATP-binding site of Aurora A kinase (Homo sapiens, UniProt O14965).
T1 construct: Codon-optimized Aurora A^122-403 in pET28a and untagged λPP in T7-7 plasmid were co-transformed in BL21(DE3) cells; inferred from pET28a and the NiNTA column) (cleaved yes); made in house; host or cells: E. coli BL21(DE3), co-expressed with lambda protein phosphatase
T1 sequence (O14965 122-403): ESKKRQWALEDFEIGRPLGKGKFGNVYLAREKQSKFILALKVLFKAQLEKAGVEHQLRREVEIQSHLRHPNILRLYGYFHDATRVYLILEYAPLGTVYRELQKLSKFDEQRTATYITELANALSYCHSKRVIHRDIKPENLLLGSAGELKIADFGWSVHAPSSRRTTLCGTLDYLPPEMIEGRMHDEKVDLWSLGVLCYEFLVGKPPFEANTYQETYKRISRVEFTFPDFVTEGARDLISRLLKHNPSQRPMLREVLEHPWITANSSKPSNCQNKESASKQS
The experiment in a line: TNP-ATP fluorescence titration of dephosphorylated Aurora A kinase with or without PS48. The settings on record: FIGS. 24-26. As for the experimental part:
TNP-ATP is excited at a wavelength of 479 nm and fluoresces at 500-600 nm. FIG. 26B is a plot showing an emission spectrum of TNP-ATP. FIG. 26C is a plot showing fluorescence spectroscopy of dephosphorylated Aurora A kinase incubated with varying amounts of TNP-ATP. FIG. 26D is a plot showing fluorescence spectroscopy of dephosphorylated Aurora A kinase and PS48 incubated with varying amounts of TNP-ATP. FIG. 26E is a plot showing fluorescence intensities measured during titration of TNP-ATP in the Aurora A kinase and PS48 sample and Aurora A kinase only sample. The dissociation constant of TNP-ATP binding to Aurora A kinase in the absence and presence of PS48 is shown at the bottom of FIG. 26E.

Data set [2] relates to HeLa cells. The experiment in a line: HeLa cell viability with PS48. In kind it is cell-based, human. The settings on record: FIG. 39.
Data set [3] addresses T2, dephosphorylated Aurora A kinase (Homo sapiens, UniProt O14965).
T2 construct: Codon-optimized Aurora A^122-403 in pET28a and untagged λPP in T7-7 plasmid were co-transformed in BL21(DE3) cells; inferred from pET28a and the NiNTA column) (cleaved yes); made in house; host or cells: E. coli BL21(DE3), co-expressed with lambda protein phosphatase
T2 sequence (O14965 122-403): T1 sequence (O14965 122-403)
Briefly: Isothermal titration calorimetry (ITC) binding to dephosphorylated Aurora A kinase. As for the experimental part: Titrations were carried out using Nano ITC isothermal titration calorimeter (TA Instruments) and analyzed via the NanoAnalyze software using the independent fit model. Injectant was added in 1 μl volume, every 180 s, with a constant stirring speed at 350 rpm and at 25° C. Prior to ITC titration, both protein and TPX2 or monobody were dialyzed/resuspended in ITC buffer (20 mM TrisHCl, 200 mM NaCl, 3% (vol/vol) glycerol, 1 mM TCEP, pH 7.50).

A short description of data set [4]: Stability of PS48 at very high concentrations. In kind it is physicochemical.
Data set [5] deals with T3, TPX2 binding site of Aurora A kinase (Homo sapiens, UniProt O14965).
T3 construct: Codon-optimized Aurora A^122-403 in pET28a and untagged λPP in T7-7 plasmid were co-transformed in BL21(DE3) cells; inferred from pET28a and the NiNTA column) (cleaved yes); made in house; host or cells: E. coli BL21(DE3) (Aurora A); TPX2 not described
T3 sequence (O14965 122-403): T1 sequence (O14965 122-403)
Briefly: NMR titration (1H-15N HSQC) of TPX2, Aurora A and PS48. To be noted: FIGS. 27A-27C. The procedure:
FIGS. 27A-27C is a set of plots showing results of NMR titration showing that PS48 binds to the TPX2 binding site of Aurora A kinase. FIG. 27A is a plot showing ^1H-^15N heteronuclear single quantum coherence (HSQC) spectra of selected titration points (250 μM TPX2, 250 μM TPX2+100 μM Aurora A, and 250 μM TPX2+100 μM Aurora A+1.5 mM PS48). A magnified view showing separation of peaks is indicated by an arrow. FIG. 27B is a plot showing changes in chemical shift (Δδ) at 200 μM TPX2 and varying concentrations of Aurora A. FIG. 27C is a plot showing changes in chemical shift (Δδ) at 200 μM TPX2 and 100 μM Aurora A and varying concentrations of PS48.

Data set [6] concerns HeLa cells. The experiment in a line: Cell imaging of synchronized HeLa cells treated with PS48 (Aurora A localization, mitotic progression). Type of data set: cell-based, human. An excerpt:
FIG. 30 is a schematic showing a summary of a protocol used for cell synchronization experiments described herein to visualize effects of PS48 on TPX2 and Aurora A interaction in vivo.
The physiological importance of the Aurora A-TPX2 interaction was then investigated through experiments using PS48 to disrupt the Aurora A-TPX2 interaction in vivo. As described herein, during the transition to mitosis, Aurora A kinase is known to localize to the centrosomes and the spindle, with levels and activity of Aurora A kinase peaking during this point. TPX2 activates Aurora A kinase and targets Aurora A kinase to the spindle during mitosis. Thus, to observe effects of disruption of the Aurora A-TPX2 interaction on the biological in vivo activities of Aurora A kinase, cells in the experiment needed to be synchronized. The live cell imaging experiments to monitor Aurora A kinase and TPX2 in vivo interaction herein were performed using HeLa cells; however, HEK293 cells may also be used (FIGS. 33-35).
To monitor mitotic progression over time with fine resolution, in addition to staining DNA, phosphorylated histone H3 (“H3_P”) was also stained to monitor levels of H3_P in cells during live cell imaging (FIG. 31). Phosphorylation of Ser10 of histone H3 is considered to be a temporal marker of mitotic progression. […]

The structures appear in SMILES notation. Entries after “also recorded” stand apart in the source; their conditions may differ. Like-named read-outs stand apart in the source and are kept apart here.

Turning to `O=C(O)/C=C(/CCc1ccc(Cl)cc1)c1ccccc1` [PS48], the “effect of PS48 on the ATP binding site of Aurora A kinase (TNP-ATP binding)” value in data set [1] is given as “does not affect binding of TNP-ATP; also recorded: does not bind to the ATP binding site”. Further, the HeLa cell viability entry in data set [2] was “PS48-dose dependent; also recorded: decreased cell viability”. The Kd – broadly, a measure of binding affinity in units of concentration – in data set [3] (Aurora A saturated with danusertib, FIGS. 3C-3D, read-out: Kd of PS48 binding to dephosphorylated Aurora A kinase) was approximately 85 µM; in data set [3] (ITC, FIG. 3B, read-out: Kd of binding of PS48 to Aurora A kinase), approximately 46 µM. Moreover, the “stability of PS48” value in data set [4] is “not stable”. Also, the “binding site of PS48 on Aurora A kinase” value in data set [5] was “bound to the TPX2 binding site of Aurora A kinase”. The “localization of Aurora A to the spindle during mitosis” value in data set [6] (HeLa cells treated with PS48, FIGS. 36-37) is given as “not observed at the spindles”. For the same molecule, the “progression of HeLa cells through mitosis” value in data set [6] (presence of PS48 vs DMSO, FIG. 38) was “prolonged”.
